The numbers were not newly measured in patent US8609693B2, “Methods of administration of thrombopoietin agonist compounds” (GlaxoSmithKline LLC, priority 2009, dated 2013), which cites them from elsewhere.

For the series, the system named is platelet counts. As to conditions: 50 mg, 75 mg and 100 mg dose; patients receiving carboplatin/paclitaxel.

Take `CC1=NN(c2ccc(C)c(C)c2)C(=O)/C1=N\Nc1cccc(-c2cccc(C(=O)O)c2)c1O` [Compound B, 3′-[(2Z)-[1-(3,4-dimethylphenyl)-1,5-dihydro-3-methyl-5-oxo-4H-pyrazol-4-ylidene]hydrazino]-2′-hydroxy-[1,1′-biphenyl]-3-carboxylic acid]: the “target platelet improvement counts” value is “not meet the target platelet improvement counts”.
